How the values were obtained:
[1] = Lipophilicity, log D at pH 7.4; assay type: physicochemical; conditions: buffer
Brain = test: Drug uptake in olive baboon brain at 7.89 mCi after 10 mins; assay type: ADME, tissue-based; conditions: papio anubis, in vivo
[2] = molecular target: Sodium-dependent dopamine transporter (Rattus norvegicus, UniProt P23977); test: Displacement of [3H]GBR from DAT in rat brain membranes; assay type: cell membranes
[3] = molecular target: Norepinephrine transporter (Rattus norvegicus, UniProt Q9WTR4); test: Displacement of [3H]nisoxetine from NET in rat brain membranes; assay type: cell membranes
Norepinephrine transporter, sequence (Q9WTR4 whole entry): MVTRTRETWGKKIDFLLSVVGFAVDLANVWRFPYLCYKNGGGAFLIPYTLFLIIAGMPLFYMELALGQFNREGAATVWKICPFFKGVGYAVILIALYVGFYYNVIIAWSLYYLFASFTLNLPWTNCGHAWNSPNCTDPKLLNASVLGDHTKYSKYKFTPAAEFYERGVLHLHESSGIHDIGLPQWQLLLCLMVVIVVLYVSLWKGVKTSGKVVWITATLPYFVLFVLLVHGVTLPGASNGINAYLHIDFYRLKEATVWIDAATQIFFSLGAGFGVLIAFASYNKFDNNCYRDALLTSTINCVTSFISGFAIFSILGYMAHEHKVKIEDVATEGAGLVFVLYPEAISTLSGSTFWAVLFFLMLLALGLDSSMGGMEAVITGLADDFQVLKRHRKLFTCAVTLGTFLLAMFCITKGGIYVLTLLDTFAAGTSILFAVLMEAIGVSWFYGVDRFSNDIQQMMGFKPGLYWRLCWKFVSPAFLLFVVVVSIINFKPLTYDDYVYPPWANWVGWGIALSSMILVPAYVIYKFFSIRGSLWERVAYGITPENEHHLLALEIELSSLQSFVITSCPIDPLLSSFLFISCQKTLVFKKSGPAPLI

[4] = molecular target: Sodium-dependent serotonin transporter (Rattus norvegicus, UniProt P31652); test: Displacement of [3H]paroxetine from SERT in brain membranes; assay type: cell membranes, Membrane
Sodium-dependent serotonin transporter, sequence (P31652 whole entry): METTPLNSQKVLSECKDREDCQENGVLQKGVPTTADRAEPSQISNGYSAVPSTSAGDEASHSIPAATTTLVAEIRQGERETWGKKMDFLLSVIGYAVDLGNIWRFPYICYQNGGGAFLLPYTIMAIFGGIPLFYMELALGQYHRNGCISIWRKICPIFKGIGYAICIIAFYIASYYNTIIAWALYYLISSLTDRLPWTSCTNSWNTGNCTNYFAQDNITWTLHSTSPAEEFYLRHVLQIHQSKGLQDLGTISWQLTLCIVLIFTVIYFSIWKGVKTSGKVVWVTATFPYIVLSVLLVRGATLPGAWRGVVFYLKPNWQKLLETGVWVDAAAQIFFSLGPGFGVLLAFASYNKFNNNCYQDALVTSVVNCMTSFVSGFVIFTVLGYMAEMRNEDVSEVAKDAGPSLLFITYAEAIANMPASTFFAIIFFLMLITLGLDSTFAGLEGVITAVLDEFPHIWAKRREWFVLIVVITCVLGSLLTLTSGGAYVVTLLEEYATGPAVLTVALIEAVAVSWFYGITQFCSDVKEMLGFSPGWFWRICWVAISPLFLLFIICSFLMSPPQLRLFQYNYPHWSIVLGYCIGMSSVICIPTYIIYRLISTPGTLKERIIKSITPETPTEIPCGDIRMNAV

[5] = molecular target: Sodium-dependent serotonin transporter (Rattus norvegicus) (UniProt P31652); test: Inhibition of SERT in rat brain membrane at 10 uM; assay type: cell membranes
Sodium-dependent serotonin transporter (Rattus norvegicus), sequence (P31652 whole entry): as above

Sodium-dependent dopamine transporter, sequence (P23977 whole entry): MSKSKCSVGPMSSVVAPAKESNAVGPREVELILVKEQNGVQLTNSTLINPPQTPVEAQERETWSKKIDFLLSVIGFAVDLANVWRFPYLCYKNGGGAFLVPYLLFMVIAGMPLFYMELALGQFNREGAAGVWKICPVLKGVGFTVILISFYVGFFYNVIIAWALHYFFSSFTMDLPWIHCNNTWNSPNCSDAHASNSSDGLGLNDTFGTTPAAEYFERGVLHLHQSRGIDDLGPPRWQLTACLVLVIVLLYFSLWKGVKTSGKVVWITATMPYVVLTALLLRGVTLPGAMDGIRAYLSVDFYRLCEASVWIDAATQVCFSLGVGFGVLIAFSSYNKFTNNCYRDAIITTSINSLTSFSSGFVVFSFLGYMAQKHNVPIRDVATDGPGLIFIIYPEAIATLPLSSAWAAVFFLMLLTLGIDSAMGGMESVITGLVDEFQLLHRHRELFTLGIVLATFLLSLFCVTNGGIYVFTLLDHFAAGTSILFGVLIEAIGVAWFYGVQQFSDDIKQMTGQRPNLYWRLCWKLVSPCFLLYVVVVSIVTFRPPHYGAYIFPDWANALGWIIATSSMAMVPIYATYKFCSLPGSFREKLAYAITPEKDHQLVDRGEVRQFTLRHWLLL

SMILES	logD [1]	Drug uptake (Brain) [%ID]	Ki [2] [nM]	Ki [3] [nM]	Ki [4] [nM]	inhibition [5] [%]
FC(F)(F)c1ccccc1OC(c1cccc(I)c1)C1CNCCO1 (racemic)	–	–	1870	101	486	–
COc1ccccc1COC(c1cccc(I)c1)C1CNCCO1 (racemic)	–	–	716	73.8	351	–
COc1ccccc1OC(c1cccc(I)c1)C1CNCCO1 (racemic)	–	–	> 10000	15.4	–	12
Cc1ccccc1OC(c1ccc(I)s1)C1CNCCO1 (racemic)	–	–	186	71.9	–	31
COc1ccccc1OC(c1ccc(I)s1)C1CNCCO1 (racemic)	–	–	210	79.6	141	–
O=[N+]([O-])c1ccccc1COC(c1cccc(I)c1)C1CNCCO1 (racemic)	–	–	14.2	70.4	252	–
CCOc1ccccc1OC(c1cccc(I)c1)C1CNCCO1 (racemic)	–	–	3140	28.5	–	44

Other lines, results leading:

logD [1]	Drug uptake (Brain) [%ID]	Ki [2] [nM]	Ki [3] [nM]	Ki [4] [nM]	inhibition [5] [%]	SMILES
2.6	1	–	–	–	–	[125I]c1ccccc1O[C@@H](c1ccccc1)[C@@H]1CNCCO1
–	–	410	2.47	–	40	Ic1ccccc1OC(c1ccccc1)C1CNCCO1 (racemic)
–	–	228	0.84	40.4	–	Ic1ccccc1O[C@@H](c1ccccc1)[C@@H]1CNCCO1
–	–	740	27.6	–	24	Cc1ccccc1OC(c1cccc(I)c1)C1CNCCO1 (racemic)
